# ChEMBL document CHEMBL5149970 (J Med Chem, 2021)
# Activity calls are given as the source filed them. The rule behind the calls is not given here.
# What was measured:
# CFU-GM = experiment: Inhibition of colony formation in human CFU-GM cells assessed as reduction in colony number and size at 1 uM incubated for 14 days by crystal violet staining based analysis; assay type: toxicity, cell-based; settings: 336 h, time 14 day
# [1] = Inhibition of colony formation in human BFU-E cells assessed as reduction in colony number and size at 1 uM incubated for 14 days by crystal violet staining based analysis; assay type: toxicity, cell-based; settings: 336 h, time 14 day
# [2] = Antiproliferative activity against human EU-1 cells assessed as inhibition of cell growth incubated for 48 hrs by WST assay; assay type: functional, cell-based; settings: EU-1, 48 h
# EU-1 [3] = experiment: Inhibition of MDM2/XIAP IRES mRNA interaction in human EU-1 cells assessed as increase in caspase-3 cleavage at 5 uM measured for 24 hrs by western blot analysis; assay type: cell-based
# EU-1 [4] = experiment: Inhibition of MDM2/XIAP IRES mRNA interaction in human EU-1 cells assessed as increase in caspase-9 cleavage at 5 uM measured for 24 hrs by western blot analysis; assay type: cell-based
# EU-1 [5] = experiment: Inhibition of MDM2/XIAP IRES mRNA interaction in human EU-1 cells assessed as increase in PARP cleavage at 5 uM measured for 24 hrs by western blot analysis; assay type: cell-based
# EU-1 [6] = experiment: Inhibition of MDM2/XIAP IRES mRNA interaction in human EU-1 cells assessed as increase in p53 protein expression at 1 uM measured after 2 to 24 hrs by western blot analysis; assay type: cell-based; settings: time 2-24 hrs
# EU-1 [7] = experiment: Inhibition of MDM2/XIAP IRES mRNA interaction in human EU-1 cells assessed as increase in p53 protein expression measured after 24 hrs by western blot analysis; assay type: cell-based; settings: dose 0.25-2 µM, DDE = dose-dependent effect
# [8] = Antiproliferative activity against human EU-3 cells assessed as reduction in cell survival incubated for 48 hrs by WST assay; assay type: functional, cell-based; settings: EU-3, 48 h
# [9] = Antiproliferative activity against human NB-1643 cells assessed as reduction in cell survival incubated for 48 hrs by WST assay; assay type: functional, cell-based; settings: NB-1643, 48 h
# [10] = Antiproliferative activity against human SH-EP1 cells assessed as reduction in cell survival incubated for 48 hrs by WST assay; assay type: functional, cell-based; settings: SH-EP1, 48 h
# [11] = Antiproliferative activity against human LA1-55n cells assessed as reduction in cell survival incubated for 48 hrs by WST assay; assay type: functional, cell-based
# NB-1643 = experiment: Inhibition of colony formation in human NB-1643 cells assessed as reduction in colony number and size at 0.25 to 4 uM incubated for 2 weeks by crystal violet staining based analysis; assay type: functional, cell-based; settings: dose 0.25-4 µM
# SH-EP1 = experiment: Inhibition of colony formation in human SH-EP1 cells assessed as reduction in colony number and size at 0.25 to 4 uM incubated for 2 weeks by crystal violet staining based analysis; assay type: functional, cell-based; settings: dose 0.25-4 µM
# LA1-55n = experiment: Inhibition of colony formation in human LA1-55n cells assessed as reduction in colony number and size at 0.25 to 4 uM incubated for 2 weeks by crystal violet staining based analysis; assay type: functional, cell-based; settings: dose 0.25-4 µM
# EU-1 [12] = experiment: Inhibition of MDM2/XIAP IRES mRNA interaction in human EU-1 cells assessed as induction of MDM2 degradation by measuring downregulation of MDM2 protein expression incubated for 24 hrs by western blot analysis; assay type: cell-based; settings: dose 0.25-2 µM, DDE = dose-dependent effect
# EU-1 [13] = experiment: Inhibition of MDM2/XIAP IRES mRNA interaction in human EU-1 cells assessed as induction of MDM2 degradation by measuring downregulation of MDM2 protein expression at 1 uM measured after 2 to 24 hrs by western blot analysis; assay type: cell-based; settings: time 2-24 hrs
# EU-1 [14] = experiment: Inhibition of MDM2/XIAP IRES mRNA interaction in human EU-1 cells assessed as downregulation of XIAP protein expression incubated for 24 hrs by western blot analysis; assay type: cell-based; settings: dose 0.25-2 µM, DDE = dose-dependent effect
# EU-1 [15] = experiment: Inhibition of MDM2/XIAP IRES mRNA interaction in human EU-1 cells assessed as downregulation of XIAP protein expression at 1 uM measured after 2 to 24 hrs by western blot analysis; assay type: cell-based; settings: time 2-24 hrs
# EU-1 [16] = experiment: Inhibition of MDM2/XIAP IRES mRNA interaction in human EU-1 cells assessed as induction of MDM2 degradation by measuring downregulation of MDM2 protein expression at 1 uM measured after 8 hrs by western blot analysis; assay type: cell-based
# EU-1 [17] = experiment: Inhibition of MDM2/XIAP IRES mRNA interaction in human EU-1 cells assessed as induction of MDM2 degradation by measuring fold change in MDM2 protein expression at 1 uM measured after 30 mins by CHX chase assay (reference value: 0.92); assay type: cell-based
# EU-1 [18] = experiment: Inhibition of MDM2/XIAP IRES mRNA interaction in human EU-1 cells assessed as induction of MDM2 degradation by measuring fold change in MDM2 protein expression at 1 uM measured after 60 mins by CHX chase assay (reference value: 0.85); assay type: cell-based
# EU-1 [19] = experiment: Inhibition of MDM2/XIAP IRES mRNA interaction in human EU-1 cells assessed as induction of MDM2 degradation by measuring fold change in MDM2 protein expression at 1 uM measured after 90 mins by CHX chase assay (reference value: 0.76); assay type: cell-based
# EU-1 [20] = experiment: Inhibition of MDM2/XIAP IRES mRNA interaction in human EU-1 cells assessed as induction of MDM2 degradation by measuring fold change in MDM2 protein expression at 1 uM measured after 120 mins by CHX chase assay (reference value: 0.69); assay type: cell-based
# EU-1 [21] = experiment: Inhibition of MDM2/XIAP IRES mRNA interaction in human EU-1 cells assessed as fold change in p53 protein expression at 1 uM measured after 30 mins by CHX chase assay (reference value: 0.38); assay type: cell-based
# EU-1 [22] = experiment: Inhibition of MDM2/XIAP IRES mRNA interaction in human EU-1 cells assessed as fold change in p53 protein expression at 1 uM measured after 60 mins by CHX chase assay (reference value: 0.19); assay type: cell-based
# EU-1 [23] = experiment: Inhibition of MDM2/XIAP IRES mRNA interaction in human EU-1 cells assessed as fold change in p53 protein expression at 1 uM measured after 90 mins by CHX chase assay (reference value: 0.13); assay type: cell-based
# EU-1 [24] = experiment: Inhibition of MDM2/XIAP IRES mRNA interaction in human EU-1 cells assessed as fold change in p53 protein expression at 1 uM measured after 120 mins by CHX chase assay (reference value: 0.08); assay type: cell-based
# EU-1 [25] = experiment: Inhibition of MDM2/XIAP IRES mRNA interaction in human EU-1 cells assessed as induction of MDM2 self-ubiquitination at 1 uM measured for 90 mins by immunoprecipitation-western blot analysis; assay type: cell-based
# EU-1 [26] = experiment: Inhibition of MDM2/XIAP IRES mRNA interaction in human EU-1 cells assessed as increase in p53 protein expression at 1 uM measured after 8 hrs by western blot analysis; assay type: cell-based
# EU-1 [27] = experiment: Inhibition of MDM2/XIAP IRES mRNA interaction in human EU-1 cells assessed as increase in p21 protein expression at 1 uM measured after 8 hrs by western blot analysis; assay type: cell-based
# EU-1 [28] = experiment: Inhibition of MDM2/XIAP IRES mRNA interaction in human EU-1 cells assessed as increase in PUMA protein expression at 1 uM measured after 8 hrs by western blot analysis; assay type: cell-based
# EU-1 [29] = experiment: (§1) Inhibition of MDM2/XIAP IRES mRNA interaction in human EU-1 cells assessed as inhibition of XIAP mRNA translation by measuring reduction in state of polyribosome association of XIAP mRNA in cytoplasmic lysate at 1 uM measured after 4 hrs by linear sucrose gradient fractionation based qRT-PCR analysis; assay type: subcellular; settings: Cytoplasm
# EU-1 [30] = experiment: as §1, with “increase” for “reduction in state of polyribosome association of XIAP mRNA”, “fraction containing translation-inactive complexes, mono ribosomes” for “lysate”; assay type: subcellular; settings: Cytoplasm
# EU-1 [31] = experiment: Inhibition of MDM2/XIAP IRES mRNA interaction in human EU-1 cells assessed as increase in caspase-3 cleavage at 1 uM measured after 8 hrs by western blot analysis; assay type: cell-based
# EU-1 [32] = experiment: Inhibition of MDM2/XIAP IRES mRNA interaction in human EU-1 cells assessed as increase in caspase-9 cleavage at 1 uM measured after 8 hrs by western blot analysis; assay type: cell-based
# EU-1 [33] = experiment: Inhibition of MDM2/XIAP IRES mRNA interaction in human EU-1 cells assessed as increase in PARP cleavage at 1 uM measured after 8 hrs by western blot analysis; assay type: cell-based
# [34] = Cmax in Sprague-Dawley rat at 10 mg/kg, iv measured for 24 hrs by LC-MS/MS analysis; assay type: ADME, organism-based; set-up: dose 10 mg/kg, time 24 hrs, route iv; settings: in vivo
# [35] = AUC in Sprague-Dawley rat at 10 mg/kg, iv measured for 24 hrs by LC-MS/MS analysis; assay type: ADME, organism-based; set-up: dose 10 mg/kg, time 24 hrs, route iv; settings: in vivo
# [36] = Clearance in Sprague-Dawley rat at 10 mg/kg, iv measured for 24 hrs by LC-MS/MS analysis; assay type: ADME, organism-based; settings: in vivo
# [37] = Volume of distribution in Sprague-Dawley rat at 10 mg/kg, iv measured for 24 hrs by LC-MS/MS analysis; assay type: ADME, organism-based; settings: in vivo
# [38] = Elimination half life in Sprague-Dawley rat at 10 mg/kg, iv measured for 24 hrs by LC-MS/MS analysis; assay type: ADME, organism-based; settings: in vivo
# [39] = AUC in Sprague-Dawley rat at 25 mg/kg, po measured for 24 hrs by LC-MS/MS analysis; assay type: ADME, organism-based; set-up: time 24 hrs, dose 25 mg/kg, route po; settings: in vivo
# [40] = Oral bioavailability in Sprague-Dawley rat at 25 mg/kg measured for 24 hrs by LC-MS/MS analysis; assay type: ADME, organism-based; settings: in vivo
# EU-1 [41] = settings: Homo sapiens, dose 1.0 µM, time 4.0 hrs
# EU-1 [42] = settings: Homo sapiens, dose 1.0 µM, time 4.0 hrs; remark: listed apart in the source
smiles,measurement,setting,value
COc1cccc2c1C(=O)c1c(O)c3c(c(O)c1C2=O)C[C@@](O)(C(=O)CO)C[C@@H]3O[C@H]1C[C@H](N)[C@H](O)[C@H](C)O1 [DOXORUBICIN],Activity,CFU-GM,Toxic
same,Activity,[1],Toxic
Cc1ccc(NS(=O)(=O)c2ccc3c(c2)C2C=CCC2C(c2ccc(C(=O)O)cc2)N3)cc1C (centres undefined),IC50,[2],7500 nM
same,inhibition,EU-1 [3],Active
same,inhibition,EU-1 [4],Active
same,inhibition,EU-1 [5],Active
C=CC(=O)c1ccc(C2Nc3ccc(S(=O)(=O)Nc4ccc(C)c(C)c4)cc3C3OCCC23)cc1 (centres undefined),IC50,[2],30000 nM
COC(=O)c1ccc(C2Nc3c(Cl)cc(S(=O)(=O)Nc4ccc(C)c(C)c4)cc3C3OCCC23)cc1 (centres undefined),IC50,[2],> 50000 nM
Cc1ccc(NS(=O)(=O)c2ccc3c(c2)C2OCCC2C(c2ccc(C(=O)C(C)C)cc2)N3)cc1 (centres undefined),IC50,[2],3300 nM
Cc1ccc(NS(=O)(=O)c2ccc3c(c2)C2OCCC2C(c2ccc(C(=O)C(C)C)cc2)N3)cc1C (centres undefined),Activity,CFU-GM,Non-Toxic
same,Activity,[1],Non-Toxic
same,inhibition,EU-1 [6],Active
same,inhibition,EU-1 [7],Dde
same,IC50,[2],300 nM
same,IC50,[8],300 nM
same,IC50,[9],500 nM
same,IC50,[10],500 nM
same,IC50,[11],500 nM
same,inhibition,NB-1643,Active
same,inhibition,SH-EP1,Active
same,inhibition,LA1-55n,Active
same,inhibition,EU-1 [12],Dde
same,inhibition,EU-1 [13],Active
same,inhibition,EU-1 [14],Dde
same,inhibition,EU-1 [15],Active
same,inhibition,EU-1 [16],Active
same,fold change (FC),EU-1 [17],0.78
same,fold change (FC),EU-1 [18],0.47
same,fold change (FC),EU-1 [19],0.25
same,fold change (FC),EU-1 [20],0.13
same,fold change (FC),EU-1 [21],1.06
same,fold change (FC),EU-1 [22],1.09
same,fold change (FC),EU-1 [23],1.15
same,fold change (FC),EU-1 [24],1.14
same,inhibition,EU-1 [25],Active
same,inhibition,EU-1 [26],Active
same,inhibition,EU-1 [27],Active
same,inhibition,EU-1 [28],Active
same,inhibition,EU-1 [29],Active
same,inhibition,EU-1 [30],Active
same,inhibition,EU-1 [31],Active
same,inhibition,EU-1 [32],Active
same,inhibition,EU-1 [33],Active
same,Cmax,[34],8200 ng/mL
same,AUC,[35],4750 ng·h/mL
same,CL,[36],35.3 mL/min/kg
same,Vd,[37],2.88 L/kg
same,beta t1/2,[38],0.94 h
same,AUC,[39],710 ng·h/mL
same,F,[40],5.9%
same,T1/2,EU-1 [41],< 1 h
same,T1/2,EU-1 [42],> 2 h
Cc1ccc(NS(=O)(=O)c2ccc3c(c2)C2OCCCC2C(c2ccc(C(=O)O)cc2)N3)cc1C (centres undefined),IC50,[2],> 50000 nM
CC(C)C(=O)c1ccc(C2Nc3ccc(S(=O)(=O)Nc4ccccc4)cc3C3OCCC23)cc1 (centres undefined),IC50,[2],3200 nM
